Source: PubChem BioAssay (NCI)
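Values below derive from 48-hour exposures of cells grown in 96-well plates, with endpoints linearly interpolated between the two concentrations bracketing the appropriate inhibition level. TGI marks complete inhibition of growth.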

Test system: NCI-H226 lung
Assay: NCI-60 cell line screen, 48 h

Structure (SMILES)	TGI [µM]
CC(C)C1=C2CCC3(C)C(CCC4C5C6OCC5(CCC6(C)C)CCC43C)C2(C)CC1 (configuration not stated)	> 100
c1ccc(-c2cnc(-c3ccc(-c4ncc(-c5ccccc5)o4)cc3)o2)cc1	> 100
O=C(OCC(OC(=O)c1ccccc1)C(OC(=O)c1ccccc1)C(OC(=O)c1ccccc1)c1cnn(-c2ccccc2)n1)c1ccccc1 (configuration not stated)	> 100
COC(=O)C1=C(O)C(C(=O)OC)[C@@]2(O)[C@@H](C(=O)OC)[C@H](C)[C@@H](C)[C@@H]1[C@@H]2C(=O)OC (some centres not stated)	> 100

Test system: CCRF-CEM leukemia
Assay: NCI-60 cell line screen, 48 h

Structure (SMILES)	TGI [µM]
CCOC(=O)C1CN(C2CC2)CCC1=O (configuration not stated)	> 100
Cc1cc2nc(-c3cc(C(C)(C)C)c(O)c(C(C)(C)C)c3)[nH]c2cc1C	5.71
CCOC(=O)C(C)c1nc2c(Cl)c3ncccc3cc2[nH]c1=O (configuration not stated)	68.4
CC(C)C1=C2CCC3(C)C(CCC4C5C6OCC5(CCC6(C)C)CCC43C)C2(C)CC1 (configuration not stated)	31.9
c1ccc(-c2cnc(-c3ccc(-c4ncc(-c5ccccc5)o4)cc3)o2)cc1	> 100
O=C(OCC(OC(=O)c1ccccc1)C(OC(=O)c1ccccc1)C(OC(=O)c1ccccc1)c1cnn(-c2ccccc2)n1)c1ccccc1 (configuration not stated)	> 100
COC(=O)C1=C(O)C(C(=O)OC)[C@@]2(O)[C@@H](C(=O)OC)[C@H](C)[C@@H](C)[C@@H]1[C@@H]2C(=O)OC (some centres not stated)	> 100

Test system: SK-MEL-5 melanoma
Assay: NCI-60 cell line screen, 48 h

Structure (SMILES)	TGI [µM]
CCOC(=O)C1CN(C2CC2)CCC1=O (configuration not stated)	> 100
Cc1cc2nc(-c3cc(C(C)(C)C)c(O)c(C(C)(C)C)c3)[nH]c2cc1C	> 100
CCOC(=O)C(C)c1nc2c(Cl)c3ncccc3cc2[nH]c1=O (configuration not stated)	> 100
CC(C)C1=C2CCC3(C)C(CCC4C5C6OCC5(CCC6(C)C)CCC43C)C2(C)CC1 (configuration not stated)	50.2
c1ccc(-c2cnc(-c3ccc(-c4ncc(-c5ccccc5)o4)cc3)o2)cc1	> 100
O=C(OCC(OC(=O)c1ccccc1)C(OC(=O)c1ccccc1)C(OC(=O)c1ccccc1)c1cnn(-c2ccccc2)n1)c1ccccc1 (configuration not stated)	> 100

Test system: OVCAR-8 ovarian
Assay: NCI-60 cell line screen, 48 h

Structure (SMILES)	TGI [µM]
CCOC(=O)C1CN(C2CC2)CCC1=O (configuration not stated)	> 100
Cc1cc2nc(-c3cc(C(C)(C)C)c(O)c(C(C)(C)C)c3)[nH]c2cc1C	> 52.8
CCOC(=O)C(C)c1nc2c(Cl)c3ncccc3cc2[nH]c1=O (configuration not stated)	> 100
CC(C)C1=C2CCC3(C)C(CCC4C5C6OCC5(CCC6(C)C)CCC43C)C2(C)CC1 (configuration not stated)	34.4
c1ccc(-c2cnc(-c3ccc(-c4ncc(-c5ccccc5)o4)cc3)o2)cc1	> 100
O=C(OCC(OC(=O)c1ccccc1)C(OC(=O)c1ccccc1)C(OC(=O)c1ccccc1)c1cnn(-c2ccccc2)n1)c1ccccc1 (configuration not stated)	> 100

Test system: PC-3 prostate
Assay: NCI-60 cell line screen, 48 h

Structure (SMILES)	TGI [µM]
CCOC(=O)C1CN(C2CC2)CCC1=O (configuration not stated)	> 100
Cc1cc2nc(-c3cc(C(C)(C)C)c(O)c(C(C)(C)C)c3)[nH]c2cc1C	> 100
CCOC(=O)C(C)c1nc2c(Cl)c3ncccc3cc2[nH]c1=O (configuration not stated)	> 100
c1ccc(-c2cnc(-c3ccc(-c4ncc(-c5ccccc5)o4)cc3)o2)cc1	> 100

Test system: TK-10 renal
Assay: NCI-60 cell line screen, 48 h

Structure (SMILES)	TGI [µM]
CCOC(=O)C1CN(C2CC2)CCC1=O (configuration not stated)	> 100
Cc1cc2nc(-c3cc(C(C)(C)C)c(O)c(C(C)(C)C)c3)[nH]c2cc1C	> 100
CCOC(=O)C(C)c1nc2c(Cl)c3ncccc3cc2[nH]c1=O (configuration not stated)	> 100
CC(C)C1=C2CCC3(C)C(CCC4C5C6OCC5(CCC6(C)C)CCC43C)C2(C)CC1 (configuration not stated)	31
c1ccc(-c2cnc(-c3ccc(-c4ncc(-c5ccccc5)o4)cc3)o2)cc1	> 100
O=C(OCC(OC(=O)c1ccccc1)C(OC(=O)c1ccccc1)C(OC(=O)c1ccccc1)c1cnn(-c2ccccc2)n1)c1ccccc1 (configuration not stated)	> 100
COC(=O)C1=C(O)C(C(=O)OC)[C@@]2(O)[C@@H](C(=O)OC)[C@H](C)[C@@H](C)[C@@H]1[C@@H]2C(=O)OC (some centres not stated)	> 100

Test system: OVCAR-3 ovarian
Assay: NCI-60 cell line screen, 48 h

Structure (SMILES)	TGI [µM]
CCOC(=O)C1CN(C2CC2)CCC1=O (configuration not stated)	> 100
Cc1cc2nc(-c3cc(C(C)(C)C)c(O)c(C(C)(C)C)c3)[nH]c2cc1C	> 100
CCOC(=O)C(C)c1nc2c(Cl)c3ncccc3cc2[nH]c1=O (configuration not stated)	> 100
CC(C)C1=C2CCC3(C)C(CCC4C5C6OCC5(CCC6(C)C)CCC43C)C2(C)CC1 (configuration not stated)	51
c1ccc(-c2cnc(-c3ccc(-c4ncc(-c5ccccc5)o4)cc3)o2)cc1	> 100
O=C(OCC(OC(=O)c1ccccc1)C(OC(=O)c1ccccc1)C(OC(=O)c1ccccc1)c1cnn(-c2ccccc2)n1)c1ccccc1 (configuration not stated)	> 100
COC(=O)C1=C(O)C(C(=O)OC)[C@@]2(O)[C@@H](C(=O)OC)[C@H](C)[C@@H](C)[C@@H]1[C@@H]2C(=O)OC (some centres not stated)	78.2

Test system: SW-620 colon
Assay: NCI-60 cell line screen, 48 h

Structure (SMILES)	TGI [µM]
CCOC(=O)C1CN(C2CC2)CCC1=O (configuration not stated)	> 100
Cc1cc2nc(-c3cc(C(C)(C)C)c(O)c(C(C)(C)C)c3)[nH]c2cc1C	13.5
CCOC(=O)C(C)c1nc2c(Cl)c3ncccc3cc2[nH]c1=O (configuration not stated)	> 100
CC(C)C1=C2CCC3(C)C(CCC4C5C6OCC5(CCC6(C)C)CCC43C)C2(C)CC1 (configuration not stated)	50.8
c1ccc(-c2cnc(-c3ccc(-c4ncc(-c5ccccc5)o4)cc3)o2)cc1	> 100
O=C(OCC(OC(=O)c1ccccc1)C(OC(=O)c1ccccc1)C(OC(=O)c1ccccc1)c1cnn(-c2ccccc2)n1)c1ccccc1 (configuration not stated)	> 100
